From US6908935B2, “Calcium receptor modulating agents” (Amgen Inc., priority 2002, dated 2005)

These compounds were tested against T1, human parathyroid cell Ca^2+ receptor (hPCaR) (Homo sapiens, UniProt P41180) (assay: [Ca2+]i measurement with fluo-3 in HEK 293 4.0-7 cells stably transfected with hPCaR). Settings: fluo-3 fluorescence (485/530 nm), effect on [Ca^2+]i.
T1 construct: expressed in transfected cells
T1 sequence (P41180 20-1078): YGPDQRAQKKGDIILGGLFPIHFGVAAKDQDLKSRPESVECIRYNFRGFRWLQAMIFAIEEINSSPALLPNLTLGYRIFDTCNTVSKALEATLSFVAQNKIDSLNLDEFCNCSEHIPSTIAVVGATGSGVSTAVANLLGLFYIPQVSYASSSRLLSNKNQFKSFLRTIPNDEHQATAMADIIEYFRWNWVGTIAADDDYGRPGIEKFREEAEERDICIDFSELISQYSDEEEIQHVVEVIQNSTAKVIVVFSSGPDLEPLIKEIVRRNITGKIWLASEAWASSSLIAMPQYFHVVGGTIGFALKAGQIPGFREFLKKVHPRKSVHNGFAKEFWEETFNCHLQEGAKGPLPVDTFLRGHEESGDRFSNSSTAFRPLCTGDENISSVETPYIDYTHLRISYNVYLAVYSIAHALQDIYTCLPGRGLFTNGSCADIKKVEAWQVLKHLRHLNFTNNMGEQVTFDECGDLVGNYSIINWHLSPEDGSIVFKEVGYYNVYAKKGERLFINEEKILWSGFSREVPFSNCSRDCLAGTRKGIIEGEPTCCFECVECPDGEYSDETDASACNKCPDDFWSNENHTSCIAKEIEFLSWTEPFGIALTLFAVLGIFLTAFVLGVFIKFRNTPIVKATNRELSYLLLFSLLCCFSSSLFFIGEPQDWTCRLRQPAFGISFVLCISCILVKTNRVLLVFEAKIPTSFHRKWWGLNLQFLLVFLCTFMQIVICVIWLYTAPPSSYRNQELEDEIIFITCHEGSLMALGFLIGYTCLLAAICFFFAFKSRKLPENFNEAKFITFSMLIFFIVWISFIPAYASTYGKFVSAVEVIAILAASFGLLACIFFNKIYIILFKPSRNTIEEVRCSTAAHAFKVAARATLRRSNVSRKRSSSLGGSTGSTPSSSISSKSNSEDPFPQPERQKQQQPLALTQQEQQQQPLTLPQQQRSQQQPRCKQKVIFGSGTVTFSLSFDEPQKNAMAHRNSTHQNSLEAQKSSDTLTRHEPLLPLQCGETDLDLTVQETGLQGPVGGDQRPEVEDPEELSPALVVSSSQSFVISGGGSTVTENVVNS
Format: cell-based
How it was run: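 Cytosolic [Ca2+] was read as fluo-3 fluorescence (ex 485/em 530 nm) after compound addition to washed cells. Cells were hPCaR-transfected HEK 293 clone 7, dye-loaded 30 min at 37 °C with 2 μM fluo-3 acetoxymethyl ester in HEPES-buffered saline pH 7.45 containing 1 mM CaCl2 and 0.5% BSA.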

SMILES	EC50 [µM]
COc1ccc(CN[C@H](C)c2cccc3ccccc23)cc1-c1cccc(C(F)(F)F)c1 [(1R)-N-((6-(methyloxy)-3′-(trifluoromethyl)-1,1′-biphenyl-3-yl)methyl)-1-(1-naphthalenyl)ethanamine]	≤ 10
COc1cccc([C@@H](C)NCc2ccc(OC)c(-c3ccc(Cl)cc3)c2)c1 [(1R)-N-((4′-chloro-6-(methyloxy)-1,1′-biphenyl-3-yl)methyl)-1-(3-(methyloxy)phenyl)ethanamine]	≤ 10
COc1ccc(-c2cc(CN[C@H](C)c3ccccc3)ccc2OC)nc1 [(1R)-N-((4-(methyloxy)-3-(5-(methyloxy)-2-pyridinyl)phenyl)methyl)-1-phenylethanamine]	≤ 10
COc1ccc(CN[C@H](C)c2ccccc2)cc1-c1cn(C)cn1 [(1R)-N-((3-(1-methyl-1H-imidazol-4-yl)-4-(methyloxy)phenyl)methyl)-1-phenylethanamine]	≤ 10
Cc1ccc([C@@H](C)NCc2cccc(-c3ccccc3F)c2)cc1 [(1R)-N-((2′-fluoro-1,1′-biphenyl-3-yl)methyl)-1-(4-methylphenyl)ethanamine]	≤ 10
COc1cccc([C@@H](C)NCc2ccc(OC)c(-c3ccc(C(=O)N(C)C)cc3)c2)c1 [N,N-dimethyl-2′-(methyloxy)-5′-((((1R)-1-(3-(methyloxy)phenyl)ethyl)amino)methyl)-1,1′-biphenyl-4-carboxamide]	≤ 10
COc1ccc(CN[C@H](C)c2cccc3ccccc23)cc1-c1ccc(C(F)(F)F)nc1	≤ 10
COc1ccc(CN[C@H](C)c2ccccc2)cc1-c1cccnc1OCC1CCCO1 (stereo partly drawn) [(1R)-N-((4-(methyloxy)-3-(2-((tetrahydro-2-furanylmethyl)oxy)-3-pyridinyl)phenyl)methyl)-1-phenylethanamine]	≤ 10
COc1ccc(CN[C@H](C)c2cccc3ccccc23)cc1C1CCNCC1 [(1R)-N-((4-(methyloxy)-3-(4-piperidinyl)phenyl)methyl)-1-(1-naphthalenyl)ethanamine]	≤ 10
COc1cccc([C@@H](C)NCc2ccc(Cl)c(-c3cccnc3)c2)c1 [(1R)-N-((4-chloro-3-(3-pyridinyl)phenyl)methyl)-1-(3-(methyloxy)phenyl)ethanamine]	≤ 10
COc1ccc(-c2cc(CN[C@H](C)c3ccc4ccccc4c3)ccc2OC)nn1 [(1R)-N-((4-(methyloxy)-3-(6-(methyloxy)-3-pyridazinyl)phenyl)methyl)-1-(2-naphthalenyl)ethanamine]	≤ 10
COc1ccc(CN[C@H](C)c2ccccc2)cc1-c1cccnc1F [(1R)-N-((3-(2-fluoro-3-pyridinyl)-4-(methyloxy)phenyl)methyl)-1-phenylethanamine]	≤ 10
COc1ccc(CN[C@H](C)c2cccc3ccccc23)cc1-c1ccc2oc(C)nc2c1 [(1R)-N-((3-(2-methyl-1,3-benzoxazol-5-yl)-4-(methyloxy)phenyl)methyl)-1-(1-naphthalenyl)ethanamine]	≤ 10
COCCOc1cccc([C@@H](C)NCc2ccc(OC)c(-c3ccc(C(F)(F)F)cc3)c2)c1 [(1R)-1-(3-((2-(methyloxy)ethyl)oxy)phenyl)-N-((6-(methyloxy)-4′-(trifluoromethyl)-1,1′-biphenyl-3-yl)methyl)ethanamine]	≤ 10

The remaining lines, values ahead:

EC50 [µM]	SMILES
≤ 10	COc1ccc(CN[C@H](C)c2cccc3ccccc23)cc1-c1ccc(C(F)(F)F)cc1 [(1R)-N-((6-(methyloxy)-4′-(trifluoromethyl)-1,1′-biphenyl-3-yl)methyl)-1-(1-naphthalenyl)ethanamine]
≤ 10	COc1ccc(CN[C@H](C)c2ccccc2)cc1-c1ccsc1 [(1R)-N-((4-(methyloxy)-3-(3-thienyl)phenyl)methyl)-1-phenylethanamine]
≤ 10	COc1ccc([C@@H](C)NCc2ccc(OC)c(-c3cccc(C#N)c3)c2)cc1 [2′-(methyloxy)-5′-((((1R)-1-(4-(methyloxy)phenyl)ethyl)amino)methyl)-1,1′-biphenyl-3-carbonitrile]
≤ 10	COCCn1cc(-c2cc(CN[C@H](C)c3cccc4ccccc34)ccc2OC)ccc1=O [1-(2-(methyloxy)ethyl)-5-(2-(methyloxy)-5-((((1R)-1-(1-naphthalenyl)ethyl)amino)methyl)phenyl)-2(1H)-pyridinone]
≤ 10	COc1cccc([C@@H](C)NCc2ccc(OC)c(-c3cccc(OC(F)(F)F)c3)c2)c1 [(1R)-1-(3-(methyloxy)phenyl)-N-((6-(methyloxy)-3′-((trifluoromethyl)oxy)-1,1′-biphenyl-3-yl)methyl)ethanamine]
≤ 10	COc1ccc(CN[C@H](C)c2ccccc2)cc1-c1ccc(OCC2CCCO2)nc1 (stereo partly drawn) [(1R)-N-((4-(methyloxy)-3-(6-((tetrahydro-2-furanylmethyl)oxy)-3-pyridinyl)phenyl)methyl)-1-phenylethanamine]
≤ 10	COc1ccc(CN[C@H](C)c2ccccc2)cc1-c1ccc2oc(C)nc2c1 [(1R)-N-((3-(2-methyl-1,3-benzoxazol-5-yl)-4-(methyloxy)phenyl)methyl)-1-phenylethanamine]
≤ 10	COc1ccc([C@@H](C)NCc2ccc(F)c(-c3ccc(F)cc3)c2)cc1 [(1R)-N-((4′,6-difluoro-1,1′-biphenyl-3-yl)methyl)-1-(4-(methyloxy)phenyl)ethanamine]
≤ 10	Cc1ccc([C@@H](C)NCc2cccc(-c3ccoc3)c2)cc1 [Example 224, (1R)-N-((3-(3-furanyl)phenyl)methyl)-1-(4-methylphenyl)ethanamine]
≤ 10	COc1ccc(CN[C@H](C)c2ccccc2)cc1-c1ccc2c(c1)CCO2 [(1R)-N-((3-(2,3-dihydro-1-benzofuran-5-yl)-4-(methyloxy)phenyl)methyl)-1-phenylethanamine]
≤ 10	COc1cccc([C@@H](C)NCc2ccc(OC)c(-c3cnc(OCC(F)(F)F)nc3)c2)c1 [(1R)-1-(3-(methyloxy)phenyl)-N-((4-(methyloxy)-3-(2-((2,2,2-trifluoroethyl)oxy)-5-pyrimidinyl)phenyl)methyl)ethanamine]
≤ 10	COc1cccc([C@@H](C)NCc2ccc(OC)c(-c3ccc(S(C)(=O)=O)cc3)c2)c1 [(1R)-N-((6-(methyloxy)-4′-(methylsulfonyl)-1,1′-biphenyl-3-yl)methyl)-1-(3-(methyloxy)phenyl)ethanamine]
≤ 10	COc1cccc([C@@H](C)NCc2cccc(-c3cncnc3)c2)c1 [(1R)-1-(3-(methyloxy)phenyl)-N-((3-(5-pyrimidinyl)phenyl)methyl)ethanamine]
≤ 10	COc1ccc(CN[C@H](C)c2ccccc2)cc1-c1csc2ccccc12 [(1R)-N-((3-(1-benzothien-3-yl)-4-(methyloxy)phenyl)methyl)-1-phenylethanamine]
≤ 10	C[C@@H](NCc1cccc(-c2ccccn2)c1)c1ccccc1 [(1R)-1-phenyl-N-((3-(2-pyridinyl)phenyl)methyl)ethanamine]
≤ 10	COc1ccc(CN[C@H](C)c2cccc3ccccc23)cc1-c1ccc2ocnc2c1 [(1R)-N-((3-(1,3-benzoxazol-5-yl)-4-(methyloxy)phenyl)methyl)-1-(1-naphthalenyl)ethanamine]
≤ 10	CCOC(=O)c1ccc(-c2cc(CN[C@H](C)c3cccc(OC)c3)ccc2OC)cc1 [ethyl 2′-(methyloxy)-5′-((((1R)-1-(3-(methyloxy)phenyl)ethyl)amino)methyl)-1,1′-biphenyl-4-carboxylate]
≤ 10	COc1ccc(CN[C@H](C)c2ccccc2)cc1-c1ccc2c(ccn2CC2CC2)c1 [(1R)-N-((3-(1-(cyclopropylmethyl)-1H-indol-5-yl)-4-(methyloxy)phenyl)methyl)-1-phenylethanamine]
≤ 10	COc1ccc([C@@H](C)NCc2ccc(OC)c(-c3ccccc3)c2)cc1 [(1R)-N-((6-(methyloxy)-1,1′-biphenyl-3-yl)methyl)-1-(4-(methyloxy)phenyl)ethanamine]
≤ 10	COc1ccc(-c2cc(CN[C@H](C)c3ccc(C)cc3)ccc2F)cc1 [(1R)-N-((6-fluoro-4′-(methyloxy)-1,1′-biphenyl-3-yl)methyl)-1-(4-methylphenyl)ethanamine]
≤ 10	C[C@@H](NCc1cccc(-c2cncc(C(N)=O)c2)c1)c1cccc2ccccc12 [Example 460, 5-(3-((((1R)-1-(1-naphthalenyl)ethyl)amino)methyl)phenyl)-3-pyridinecarboxamide]
